Data as given in a compilation of properties of binary mixtures (doi:10.1021/acs.jced.9b00738).

Experiment: xn = mol fraction of the nth substance listed
Conditions: 100 kPa

CCCC[N+]1(C)CCCC1.O=S(=O)([N-]S(=O)(=O)C(F)(F)F)C(F)(F)F + CCOC(=O)OCC
Conditions | electrical conductivity [S/m] | viscosity [mPa·s]
293.15 K, x1 = 0.1506 | 0.443 | 2.76
293.15 K, x1 = 0.25 | 0.584 | –
293.15 K, x1 = 0.2973 | 0.613 | 6.62
293.15 K, x1 = 0.349 | 0.608 | 8.69
293.15 K, x1 = 0.4 | 0.531 | 11.2
293.15 K, x1 = 0.6002 | 0.34 | 29.01
293.15 K, x1 = 0.6985 | 0.288 | 41
293.15 K, x1 = 0.8006 | 0.254 | 55.9
293.15 K, x1 = 1 | 0.216 | 98
298.15 K, x1 = 0.1001 | 0.372 | 1.65
298.15 K, x1 = 0.1506 | 0.494 | 2.49
298.15 K, x1 = 0.2 | 0.586 | 3.49
298.15 K, x1 = 0.25 | 0.646 | –
298.15 K, x1 = 0.2973 | 0.701 | 5.86
298.15 K, x1 = 0.349 | 0.693 | 7.74
298.15 K, x1 = 0.4 | 0.622 | 9.95
298.15 K, x1 = 0.4998 | 0.514 | 15.45
298.15 K, x1 = 0.6002 | 0.425 | 24.22
298.15 K, x1 = 0.6985 | 0.365 | 34.1
298.15 K, x1 = 0.8006 | 0.329 | 46
298.15 K, x1 = 0.8934 | 0.3 | 58.6
298.15 K, x1 = 1 | 0.275 | 76.6
303.15 K, x1 = 0.1001 | 0.401 | 1.5
303.15 K, x1 = 0.1506 | 0.543 | 2.26
303.15 K, x1 = 0.2973 | 0.785 | 5.21
303.15 K, x1 = 0.349 | 0.782 | 7
303.15 K, x1 = 0.4 | 0.714 | 8.78
303.15 K, x1 = 0.4998 | 0.601 | 13.25
303.15 K, x1 = 0.6002 | 0.509 | 20.02
303.15 K, x1 = 0.6985 | 0.438 | 28.53
303.15 K, x1 = 0.8006 | 0.395 | 38
303.15 K, x1 = 0.8934 | 0.371 | 46.9
303.15 K, x1 = 1 | 0.34 | 61.6
308.15 K, x1 = 0.1001 | 0.436 | 1.35
308.15 K, x1 = 0.1506 | 0.591 | 2.03
308.15 K, x1 = 0.2 | 0.703 | 2.85
308.15 K, x1 = 0.25 | 0.8 | –
308.15 K, x1 = 0.2973 | 0.876 | 4.79
308.15 K, x1 = 0.349 | 0.867 | 6.3
308.15 K, x1 = 0.4 | 0.803 | 7.89
308.15 K, x1 = 0.6002 | 0.612 | 17
308.15 K, x1 = 0.6985 | 0.534 | 23.82
308.15 K, x1 = 0.8006 | 0.485 | 32.02
308.15 K, x1 = 1 | 0.411 | 50.8
313.15 K, x1 = 0.1506 | 0.637 | 1.83
313.15 K, x1 = 0.2 | 0.766 | 2.56
313.15 K, x1 = 0.2973 | 0.968 | 4.33
313.15 K, x1 = 0.349 | 0.957 | 5.76
313.15 K, x1 = 0.4 | 0.908 | 7.11
313.15 K, x1 = 0.4998 | 0.804 | 10.46
313.15 K, x1 = 0.6002 | 0.73 | 14.69
313.15 K, x1 = 0.6985 | 0.649 | 19.99
313.15 K, x1 = 0.8006 | 0.588 | 26
313.15 K, x1 = 0.8934 | 0.535 | 31.7
313.15 K, x1 = 1 | 0.491 | 41.6
318.15 K, x1 = 0.1001 | 0.501 | 1.09
318.15 K, x1 = 0.1506 | 0.684 | 1.64
318.15 K, x1 = 0.2 | 0.83 | 2.28
318.15 K, x1 = 0.25 | 1 | –
318.15 K, x1 = 0.2973 | 1.05 | 3.9
318.15 K, x1 = 0.349 | 1.05 | 5.21
318.15 K, x1 = 0.4 | 1 | 6.45
318.15 K, x1 = 0.4998 | 0.903 | 9.01
318.15 K, x1 = 0.6002 | 0.831 | 13
318.15 K, x1 = 0.6985 | 0.746 | 17.01
318.15 K, x1 = 0.8006 | 0.673 | 22
318.15 K, x1 = 0.8934 | 0.62 | 26.75
318.15 K, x1 = 1 | 0.581 | 34.6
323.15 K, x1 = 0.1506 | 0.742 | 1.46
323.15 K, x1 = 0.2 | 0.901 | 2.05
323.15 K, x1 = 0.25 | 1.1 | –
323.15 K, x1 = 0.2973 | 1.14 | 3.52
323.15 K, x1 = 0.349 | 1.15 | 4.63
323.15 K, x1 = 0.4 | 1.1 | 5.79
323.15 K, x1 = 0.4998 | 1.02 | 8.05
323.15 K, x1 = 0.6002 | 0.935 | 11.01
323.15 K, x1 = 0.6985 | 0.865 | 14.4
323.15 K, x1 = 0.8934 | 0.745 | 22.8
323.15 K, x1 = 1 | 0.681 | 29.46

CCOC(=O)OCC + CCCC[N+]1(C)CCCC1.O=S(=O)([N-]S(=O)(=O)C(F)(F)F)C(F)(F)F
x2 = 0
Conditions | viscosity [mPa·s]
293.15 K | 0.8
298.15 K | 0.75
303.15 K | 0.7
308.15 K | 0.65
313.15 K | 0.61
318.15 K | 0.58
